Patent US8889708B2 (Boehringer Ingelheim International GmbH, priority 2013, dated 2014)

How the values were obtained:
[1] = system: Neutrophil elastase activity in U937 cells; test: Neutrophil elastase activity in U937 cytosolic lysate after incubation with test compound; format: cell-based; conditions: Homo sapiens, U-937, U937 cells incubated 48 hours with compound, read-out: Reduction of NE-activity in U937 cells IC50
Experimental: Determination of Neutrophil Elastase Activity in U937 Cytosolic Lysate Preparation after Incubation with Test Compound
Optiplate 384F were purchased from PerkinElmer (Prod. No. #6007270). 24well Nunclon cell culture plates (No. 142475) and 96well plates (No. 267245) were from Nunc. Dimethylsulfoxid (DMSO) was from Sigma (Prod. No. D8418). Nonidet-P40 (NP40) was from USBiological (Prod. No. N3500)
Substrate, specific for Neutrophil elastase, was from Bachem (MeOSuc-Ala-Ala-Pro-Val-AMC; Prod. No. I-1270).
Human neutrophil elastase was from Calbiochem (Prod. No. 324681)
Tris-buffer (100 mM Tris; 1M NaCL; pH 7.5)
Tris-buffer+HSA 0.1%; Human Serum Albumin from Calbiochem (Cat#. 126658)
Serine-protease buffer (20 mM Tris; 100 mM NaCL; pH 7.5)+0.1% HSA
Serine protease lysis buffer: 20 mM Tris-HCL; 100 mM NaCl pH 7.5; +0.2% Nonidet-P40;
PBS: phosphate buffered saline, without Ca and Mg, from Gibco
U937 from ECACC (Cat. No. 85011440) cultured in suspension at 37° C. and 5% CO2.
Cell density: 0.2-1 Mio. Cells/ml.
Medium: RPMI1640 GlutaMAX (No. 61870) with 10% FCS from Gibco
Cell Seeding and Treatment:
Compounds in 100% DMSO were diluted in Medium (—FCS) with 10% DMSO and further diluted according to the experiment planned.
20 μl of the compound solution was transferred in the respective wells of the 24 well plate and diluted with 2 ml cell suspension/well containing […] (final concentration of DMSO=0.1%). Compound dilution factor=100
Compounds (up to 7 concentrations) were tested in triplicates with 3 wells for the DMSO 0.1% control, incubatet for 48 hours without medium change at 37° C., 5% CO2 and 95% relative humidity.
Cell Harvesting and Cell Lysate:
Transfer the cell suspension in 2.2 ml Eppendorf cups. Separate cells from medium by centrifugation (400×g; 5 min; RT); discard the supernatant. Resuspend in 1 ml PBS; centrifugation (400×g; 5 min; RT); wash cells twice with PBS. Add 100 μl Serin lysis buffer (ice cold) to the cell pellet; resuspend the pellet and store on ice for 15 minutes. Remove debris by centrifugation at 15000×g for 10 min at 4° C. Transfer 80-100 μl lysate supernatant in 96well plate and store immediately at −80° C.
Neutrophil Elastase Activity Assay:
Frozen lysates were thawn at 37° C. for 10 minutes and stored on ice. Protein content was determined with Bradford protein assay. Lysates were diluted to 0.2-0.5 mg/ml protein in serine protease buffer+HSA.
Standard: NE ([…] stocksolution in Tris-buffer; stored at −80° C.) was diluted in Tris-buffer+HSA to 750 ng/ml, and further serially diluted 1:2 for the standard curve.
Buffer, blank, standard and lysate samples were transferred into 384 well plate
Blank: 5 μl Tris-buffer+10 μl Tris-buffer+HSA+5 μl Substrate
Standard: 5 μl Tris-buffer+10 μl NE (diff.conc.)+5 μl Substrate
Lysate: 5 μl Tris-buffer+10 μl Lysat+5 μl Substrate
The increase in fluorescence (Ex360 nm/Em 460 nm) is determined over 30 minutes with a Molecular Device Spectramax M5 Fluorescence Reader. Kinetic Reduction (Vmax units/sec); 4 vmax points. The amount of neutrophil elastase (ng/ml) is calculated using the standard curve and the Spectramax software. The result is interpolated to ng/mg lysate protein using excel formula functions. Percent inhibition in the compound-treated lysate samples is calculated relative to the DMSO-treated control-sample (100−(compound-sample*100)/control-sample)
IC50 is calculated using Graphpad Prism; nonlinear fitting (log(inhibitor) vs. response—Variable slope).

[2] = Metabolic stability with human liver microsomes; format: in vitro ADME; conditions: pH 7.6; pooled human liver microsomes, 37° C., 1 μM test compound, 1 mg/ml protein, NADPH; read-out: In vitro stability in human liver microsome incubations t½
Experimental: Determination of Metabolic Stability with Human Liver Microsomes
The metabolic degradation of the test compound is assayed at 37° C. with pooled human liver microsomes. The final incubation volume of 100 μl per time point contains TRIS buffer pH 7.6 (0.1 M), magnesium chloride (5 mM), microsomal protein (1 mg/ml) and the test compound at a final concentration of 1 μM. Following a short preincubation period at 37° C., the reactions are initiated by addition of beta-nicotinamide adenine dinucleotide phosphate, reduced form (NADPH, 1 mM) and terminated by transferring an aliquot into acetonitrile after different time points. Additionally, the NADPH-independent degradation is monitored in incubations without NADPH, terminated at the last time point. The [%] remaining test compound after NADPH independent incubation is reflected by the parameter c(control) (metabolic stability). The quenched incubations are pelleted by centrifugation (10,000 g, 5 min). An aliquot of the supernatant is assayed by LC-MS/MS for the amount of parent compound.
The half-life (t½ INVITRO) is determined by the slope of the semilogarithmic plot of the concentration-time profile. The intrinsic clearance (CL_[…]) is calculated by considering the amount of protein in the incubation: CL_[…][μl/min/mg protein]=(ln 2/(half-life[min]*protein content[mg/ml]))*1,000.

[3] = target: recombinant human DPPI (Homo sapiens (Human), UniProt P53634); test: Inhibition of Human DPPI (Cathepsin C); format: biochemical; conditions: substrate Gly-Arg-AMC, 30 min room temperature
Sequence of recombinant human DPPI (P53634 231-394): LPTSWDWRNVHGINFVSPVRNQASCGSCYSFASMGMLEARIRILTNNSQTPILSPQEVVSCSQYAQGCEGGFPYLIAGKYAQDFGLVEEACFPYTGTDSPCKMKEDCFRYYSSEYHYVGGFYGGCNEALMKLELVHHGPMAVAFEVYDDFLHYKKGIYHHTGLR
Sequence of recombinant human DPPI (P53634 395-463): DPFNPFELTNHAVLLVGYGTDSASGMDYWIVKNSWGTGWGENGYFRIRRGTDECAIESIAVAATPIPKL
Sequence of recombinant human DPPI (P53634 25-134): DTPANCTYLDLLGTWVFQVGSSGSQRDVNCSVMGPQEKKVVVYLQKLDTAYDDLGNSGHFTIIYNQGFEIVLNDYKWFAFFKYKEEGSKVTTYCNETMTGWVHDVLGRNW
From the text: Inhibition of Human DPPI (Cathepsin C)
Materials: Microtiterplates (Optiplate-384 F) were purchased from PerkinElmer (Prod. No. 6007270). The substrate Gly-Arg-AMC was from Biotrend (Prod.-No. 808756 Custom peptide). Bovine serum albumin (BSA; Prod. No. A3059) and Dithiothreitol (DTT; Prod. No D0632) were from Sigma. TagZyme buffer was from Riedel-de-Haen (Prod.-No. 04269), NaCl was from Merck (Prod.-No. 1.06404.1000) and morpholinoethane sulfonic acid (MES), was from Serva (Prod.-No. 29834). The DPP1 inhibitor Gly-Phe-DMK was purchased from MP Biomedicals (Prod.-No. 03DK00625). The recombinant human DPPI was purchased from Prozymex. All other materials were of highest grade commercially available.
The following buffers were used: MES buffer: 25 mM MES, 50 mM NaCl, 5 mM DTT, adjusted to pH 6.0, containing 0.1% BSA; TAGZyme Buffer: 20 mM NaH2PO4, 150 mM NaCl adjusted to pH 6.0 with HCl
The recombinant human DPPI was diluted in TAGZyme buffer to 1 U/ml (38.1 μg/ml, respectively), and then activated by mixing in a 1:2 ratio with a Cysteamine aqueous solution (2 mM) and incubating for 5 min at room temperature.
Five uL test compound (final concentration 0.1 nM to 100 μM) in aqua bidest (containing 4% DMSO, final DMSO concentration 1%) were mixed with 10 μL of DPPI in MES buffer (final concentration 0.0125 ng/μL) and incubated for 10 min. Then, 5 μL of substrate in MES buffer (final concentration 50 μM) were added. The microtiter plates were then incubated at room temperature for 30 min. Then, the reaction was stopped by adding 10 μL of Gly-Phe-DMK in MES-buffer (final concentration 1 μM). The fluorescence in the wells was determined using a Molecular Devices SpectraMax M5 Fluorescence Reader (Ex 360 nm, Em 460 nm) or an Envision Fluorescence Reader (Ex 355 nm, Em 460 nm).
Each assay microtiter plate contained wells with vehicle controls (1% DMSO in bidest+0.075% BSA) as reference for non-inhibited enzyme activity (100% Ctl; high values) and wells with inhibitor (Gly-Phe-DMK, in bidest+1% DMSO+0.075% BSA, final concentration 1 μM) as controls for background fluorescence (0% Ctl; low values).
The analysis of the data was performed by calculating the percentage of fluorescence in the presence of test compound in comparison to the fluorescence of the vehicle control after subtracting the background fluorescence using the following formula: (RFU(sample)−RFU(background))*100/(RFU(control)−RFU(background))
Data from these calculations were used to generate IC50 values for inhibition of DPPI, respectively.

[4] = target: recombinant human Cathepsin K (Homo sapiens (Human), UniProt P43235); test: Inhibition of Human Cathepsin K; format: biochemical; conditions: substrate Z-Gly-Pro-Arg-AMC, 60 min room temperature
Sequence of recombinant human Cathepsin K (P43235 115-329): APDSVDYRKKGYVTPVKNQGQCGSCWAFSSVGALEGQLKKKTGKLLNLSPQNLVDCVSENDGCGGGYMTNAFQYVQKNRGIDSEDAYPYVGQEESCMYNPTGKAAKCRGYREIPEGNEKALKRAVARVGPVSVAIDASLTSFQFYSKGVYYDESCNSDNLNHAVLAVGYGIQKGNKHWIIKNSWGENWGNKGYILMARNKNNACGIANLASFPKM
From the text: Inhibition of Human Cathepsin K Materials: Microtiterplates (Optiplate-384 F were purchased from PerkinElmer (Prod. No. 6007270). The substrate Z-Gly-Pro-Arg-AMC was from Biomol (Prod.-No. P-142). L-Cysteine (Prod. No. 168149) was from Sigma. Sodium actetate was from Merck (Prod.-No. 6268.0250), EDTA was from Fluka (Prod.-No. 03680). The inhibitor E-64 was purchased from Sigma (Prod.-No. E3132). The recombinant human Cathepsin K proenzyme was purchased from Biomol (Prod. No. SE-367). All other materials were of highest grade commercially available.
The following buffers were used: Activation buffer: 32.5 mM sodium acetate, adjusted to pH 3.5 with HCl; Assay buffer: 150 mM sodium acetate, 4 mM EDTA, 20 mM L-Cysteine, adjusted to pH 5.5 with HCl,
To activate the proenzyme, 5 μl procathepsin K were mixed with 1 ul activation buffer, and incubated at room temperature for 30 min.
5 μL test compound (final concentration 0.1 nM to 100 μM) in aqua bidest (containing 4% DMSO, final DMSO concentration 1%) were mixed with 10 uL of Cathepsin K in assay buffer (final concentration 2 ng/μL) and incubated for 10 min. Then 5 μL of substrate in assay buffer (final concentration 12.5 μM) were added. The plates were then incubated at room temperature for 60 min. Then, the reaction was stopped by adding 10 μL of E64 in assay buffer (final concentration 1 μM). The fluorescence in the wells was determined using a Molecular Devices SpectraMax M5 Fluorescence Reader (Ex 360 nm, Em 460 nm).
Each assay microtiter plate contains wells with vehicle controls (1% DMSO in bidest) as reference for non-inhibited enzyme activity (100% Ctl; high values) and wells with inhibitor (E64 in bidest+1% DMSO, final concentration 1 μM) as controls for background fluorescence (0% Ctl; low values). The analysis of the data was performed by calculating the percentage of fluorescence in the presence of test compound in comparison to the fluorescence of the vehicle control after subtracting the background fluorescence: (RFU(sample)−RFU(background))*100/(RFU(control)−RFU(background))
Data from these calculations were used to generate IC50 values for inhibition of Cathepsin K, respectively.

Row | IC50 [1] | half-life at 1 μM [2] | IC50 [3] | IC50 [4] | SMILES
1 | – | – | 50.3 nM | > 30000 nM | CN1C(=O)Cc2ccc(-c3ccc(C[C@@H](C#N)NC(=O)[C@@]45CCO[C@@H](CN4)C5)cc3)cc21 [Example 5]
2 | – | – | 204 nM | – | CN1C(=O)Cc2ccc(-c3ccc(C[C@@H](C#N)NC(=O)[C@]45CC[C@@H](CN4)C5)cc3)cc21 [Example 7]
3 | – | – | 221 nM | – | CN1C(=O)Cc2ccc(-c3ccc(C[C@@H](C#N)NC(=O)[C@@]45CC[C@H](CN4)C5)cc3)cc21 [Example 8]
4 | – | – | 228 nM | – | CN1C(=O)Cc2ccc(-c3ccc(C[C@@H](C#N)NC(=O)C45CCOC(CCN4)C5)cc3)cc21 (stereo partly drawn) [Example 9]
5 | – | – | 283 nM | – | CS(=O)(=O)c1cc(-c2ccc(C[C@@H](C#N)NC(=O)[C@@]34CC[C@H](CN3)C4)cc2)ccc1C#N [Example 10]
6 | – | – | 428 nM | – | CN1C(=O)Cc2ccc(-c3ccc(C[C@@H](C#N)NC(=O)[C@]45CCC[C@@H](CN4)C5)cc3)cc21 [Example 12]
7 | – | – | 650 nM | – | CS(=O)(=O)c1cc(-c2ccc(C[C@@H](C#N)NC(=O)[C@]34CC[C@@H](CN3)C4)cc2)ccc1C#N [Example 14]
8 | – | – | 1220 nM | – | CS(=O)(=O)c1cc(-c2ccc(C[C@@H](C#N)NC(=O)[C@]34CCC[C@@H](CN3)C4)cc2)ccc1C#N [Example 16]

More lines, now with the values behind:

Row | SMILES | IC50 [1] | half-life at 1 μM [2] | IC50 [3] | IC50 [4]
9 | CS(=O)(=O)c1cc(-c2ccc(C[C@@H](C#N)NC(=O)C34CCC(CC3)CN4)c(F)c2)ccc1C#N [Example 1] | 64 nM | > 2.17 h | – | –
10 | CS(=O)(=O)c1cc(-c2ccc(C[C@@H](C#N)NC(=O)[C@@]34CCO[C@@H](CN3)C4)cc2)ccc1C#N [Example 6] | – | – | 202 nM | –
11 | N#Cc1ccc(-c2ccc(C[C@@H](C#N)NC(=O)C34CCC(CC3)N4)cc2)cc1F [Example 11] | – | > 2.17 h | 284 nM | –
12 | CS(=O)(=O)c1ccc(-c2ccc(C[C@@H](C#N)NC(=O)C34CCC(CC3)CN4)c(F)c2)cc1C#N [Example 18] | 74 nM | > 2.17 h | 15 nM | –
13 | CN1Cc2ccc(-c3ccc(C[C@@H](C#N)NC(=O)C45CCC(CC4)CN5)c(F)c3)cc2C1 [Example 19] | – | – | 38.1 nM | –
14 | N#C[C@H](Cc1ccc(-c2cccc(C(N)=O)c2)cc1F)NC(=O)C12CCC(CC1)CN2 [Example 24] | 114 nM | > 2.17 h | 11.2 nM | –
15 | CN1C(=O)C(C)(C)c2ccc(-c3ccc(C[C@@H](C#N)NC(=O)C45CCC(CC4)CN5)c(F)c3)cc21 [Example 25] | – | – | 40.7 nM | –
16 | N#C[C@H](Cc1ccc(-c2cnn(CC3CCOCC3)c2)cc1F)NC(=O)C12CCC(CC1)CN2 [Example 29] | 58 nM | > 2.17 h | 20.2 nM | –
17 | CN(C)S(=O)(=O)c1cccc(-c2ccc(C[C@@H](C#N)NC(=O)C34CCC(CC3)CN4)c(F)c2)c1 [Example 30] | – | 0.417 h | 6.7 nM | –
